In brackets after ≈: the same amount, converted by molar mass. Like-named read-outs stand apart in the source and are kept apart here.
Experiments:
[1] = tested on: P. falciparum Dd2 Cytb G131S; test: SYBR Green ABS proliferation assay, NCGC00374598 selected clone C11; type: cell-based, Plasmodium falciparum
Summary of the method: (§1)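 Asexual blood-stage proliferation of cytochrome b-mutant Dd2 clones after 72 h compound exposure at 37 °C in low-oxygen gas, quantified as control-normalized SYBR Green-I fluorescence; differences tested by two-sided t-test.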

[2] = tested on: P. falciparum Dd2 cytochrome b mutant lines; test: Drug response of drug-selected cytochrome b mutant lines versus parental Dd2-B2 (panel); type: cell-based, Plasmodium falciparum; details: all cytochrome b mutant lines vs Dd2-B2
Experimental: As resistance selection studies implicated the parasite cytochrome bc1 complex in mediating reduced parasite susceptibility to both NCGC00473217 and NCGC00374598, we leveraged these drug-selected parasites to test for altered drug response to a panel of antimalarial compounds.
The P. falciparum parasite Dd2 line was cultured in vitro using standard conditions. […] Tissue culture flasks and assay plates were incubated at 37 °C under a gas mixture of 5% CO2, 5% O2 and 90% N2. […] Significant differences were assessed using two-sided Student’s t-tests. All HTS assays were stopped and read at 72 h. Percent response values represent relative growth as judged by SYBR Green-I fluorescence intensity values normalized to controls.

[3] = tested on: P. falciparum Dd2 Cytb V259L; test: SYBR Green ABS proliferation assay, NCGC00473217 selected clone F06; type: cell-based, Plasmodium falciparum
Summary of the method: as §1

[4] = tested on: P. falciparum Dd2 (clone B2) asexual blood stage parasites; test: P. falciparum Dd2 asexual blood stage SYBR Green-I 72 h proliferation assay (qHTS); type: cell-based, Plasmodium falciparum
[5] = tested on: P. falciparum Dd2 Cytb F123L; test: SYBR Green ABS proliferation assay, NCGC00473217 selected clone G08; type: cell-based, Plasmodium falciparum
Summary of the method: as §1

[6] = tested on: P. falciparum Dd2 Cytb A122D; test: SYBR Green ABS proliferation assay, NCGC00473217 selected clone F12; type: cell-based, Plasmodium falciparum
Summary of the method: as §1

Aqueous solubility = type: physicochemical; details: aqueous media
Experimental: (§2) Pharmacokinetic modeling experiments, parallel artificial membrane permeability assay (PAMPA), solubility, and rat liver microsome stability assessment were performed on all synthetic compounds, as previously described[73]–[75].

[7] = Parallel artificial membrane permeability assay (PAMPA); type: in vitro ADME; details: for PAMPA pH7.4: pH 7.4
Experimental: as §2

[8] = Rat liver microsomal stability (RLMS); details: rat liver microsomes; for half-life: rat
Experimental: as §2

[9] = Plasmodium falciparum, DD2, NCGC00374598 selected clone, read-out: AC50 Log[M] ± SD, Cytb G131S (converted)
[10] = Plasmodium falciparum, DD2, Suppl Table 6, read-out: AC50 (mM), Dd2 Cytb G131S
[11] = Plasmodium falciparum, DD2, NCGC00473217 selected clone, read-out: AC50 Log[M] ± SD, Cytb V259L (converted)
[12] = Plasmodium falciparum, DD2, Suppl Table 6, read-out: AC50 (mM), Dd2 Cytb V259L
[13] = Plasmodium falciparum, DD2, 72 h, SYBR Green 72 h, WT Dd2-B2, read-out: AC50 Log[M] ± SD, Dd2-B2 (parental line) (converted)
[14] = Plasmodium falciparum, DD2, Suppl Table 6, read-out: AC50 (mM), WT (Dd2-B2)
[15] = Plasmodium falciparum, DD2, NCGC00473217 selected clone, read-out: AC50 Log[M] ± SD, Cytb F123L (converted)
[16] = Plasmodium falciparum, DD2, Suppl Table 6, read-out: AC50 (mM), Dd2 Cytb F123L
[17] = Plasmodium falciparum, DD2, NCGC00473217 selected clone, read-out: AC50 Log[M] ± SD, Cytb A122D (converted)
[18] = Plasmodium falciparum, DD2, Suppl Table 6, read-out: AC50 (mM), Dd2 Cytb A122D
[19] = Plasmodium falciparum, DD2, NCGC00374598 selected clone C11, read-out: AC50 [μM], Cytb G131S (converted)
[20] = Plasmodium falciparum, DD2, NCGC00473217 selected clone F06, read-out: AC50 [μM], Cytb V259L (converted)
[21] = Plasmodium falciparum, DD2, 72 h, SYBR Green 72 h, approximate value in μM, read-out: AC50 [μM], Dd2-B2 (parental line) (converted)
[22] = Plasmodium falciparum, DD2, NCGC00473217 selected clone G08, highest concentration 29 µM, read-out: AC50 [μM], Cytb F123L (converted)
[23] = Plasmodium falciparum, DD2, NCGC00473217 selected clone F12, read-out: AC50 [μM], Cytb A122D (converted)

Structure (SMILES)	AC50 [1, 9] [M]	change in susceptibility across drug-selected lines [2]	AC50 [3, 11] [M]	AC50 [4, 13] [M]	AC50 [5, 15] [M]	AC50 [6, 17] [M]	AC50 [1, 19] [M]	AC50 [3, 20] [M]	AC50 [4, 21] [M]	solubility (Aqueous solubility) [µg/mL]	PAMPA pH7.4 [7]	AC50 [5, 22] [M]	AC50 [6, 23] [M]	half-life [8] [min]	also measured
CCN(CC)Cc1cc(Nc2ccnc3cc(Cl)ccc23)ccc1O [Amodiaquine, amodiaquine, reference compound]	4.9e-08	no observed change in susceptibility	7.24e-08	4.68e-08	5.5e-08	6.61e-08									AC50 [1, 10]: 4.91e-08 M; AC50 [3, 12]: 7.21e-08 M; AC50 [4, 14]: 4.73e-08 M; AC50 [5, 16]: 5.51e-08 M; AC50 [6, 18]: 6.68e-08 M
CO[C@H]1O[C@@H]2O[C@@]3(C)CC[C@H]4[C@H](C)CC[C@@H]([C@H]1C)[C@@]24OO3 [Artemether, artemether, reference compound]	3.24e-08	no observed change in susceptibility	6.61e-08	5.13e-08	3.63e-08	6.61e-08									AC50 [1, 10]: 3.22e-08 M; AC50 [3, 12]: 6.68e-08 M; AC50 [4, 14]: 5.11e-08 M; AC50 [5, 16]: 3.61e-08 M; AC50 [6, 18]: 6.68e-08 M
COc1cc2[nH]c(C)c(-c3ccc(Oc4ccc(OC(F)(F)F)cc4)cc3)c(=O)c2cc1Cl [ELQ-300, reference compound]		no observed change in susceptibility													AC50 Log[M] ± SD, Cytb G131S ([1]; NCGC00374598 selected clone): -7.16 Log[M]; AC50 ([1]; Suppl Table 6, read-out: AC50 (mM), Dd2 Cytb G131S): 6.93e-08 M; AC50 Log[M] ± SD, Cytb V259L ([3]; NCGC00473217 selected clone): -7.06 Log[M]; AC50 ([3]; Suppl Table 6, read-out: AC50 (mM), Dd2 Cytb V259L): 8.73e-08 M; AC50 Log[M] ± SD, Dd2-B2 (parental line) ([4]; SYBR Green 72 h, WT Dd2-B2): -7.13 Log[M]; AC50 ([4]; Suppl Table 6, read-out: AC50 (mM), WT (Dd2-B2)): 7.5e-08 M; AC50 Log[M] ± SD, Cytb F123L ([5]; NCGC00473217 selected clone): -7.68 Log[M]; AC50 ([5]; Suppl Table 6, read-out: AC50 (mM), Dd2 Cytb F123L): 2.11e-08 M; AC50 Log[M] ± SD, Cytb A122D ([6]; NCGC00473217 selected clone): -7.39 Log[M]; AC50 ([6]; Suppl Table 6, read-out: AC50 (mM), Dd2 Cytb A122D): 4.06e-08 M
OC(c1cc(C(F)(F)F)nc2c(C(F)(F)F)cccc12)C1CCCCN1 (centres unmarked) [Mefloquine, mefloquine, reference compound]	8.32e-08	no observed change in susceptibility	1.23e-07	7.76e-08	9.77e-08	1.29e-07									AC50 [1, 10]: 8.41e-08 M; AC50 [3, 12]: 1.23e-07 M; AC50 [4, 14]: 7.78e-08 M; AC50 [5, 16]: 9.79e-08 M; AC50 [6, 18]: 1.28e-07 M
CCCN1C(CC(C)C)=NS(=O)(=O)c2cc(NC(=O)C3CCCC3)ccc21 [NCGC00521158]	4.17e-06		2.14e-06	2.69e-06	1.17e-05	5.25e-06	4.15e-06	2.16e-06	2.72e-06	< 1	726 1e-6 cm/s	1.17e-05	5.25e-06	4.8	
CCCN1C(CC(C)C)=NS(=O)(=O)c2cc(NC(=O)c3ccc(F)s3)ccc21 [NCGC00523537]	3.16e-07		8.91e-07	1.12e-07		7.94e-07	3.17e-07	8.94e-07	1.13e-07	< 1	1480 1e-6 cm/s	> 2.9e-05	7.97e-07	4.4	PAMPA permeability [7]: high permeability; RLMS T1/2 [8]: poor stability
CCCN1C(CC(C)C)=NS(=O)(=O)c2cc(NC(=O)c3sccc3F)ccc21 [NCGC00523542]	1.78e-06		5.37e-06	1.58e-06		1.32e-06	1.78e-06	5.43e-06	1.59e-06	< 1	770 1e-6 cm/s	> 2.9e-05	1.31e-06	4.6	
CCCN1C(CC(C)C)=NS(=O)(=O)c2cc(NC(=O)c3sccc3Cl)ccc21 [NCGC00531529]	5.89e-07		3.72e-06	2.24e-06		6.03e-07	5.86e-07	3.72e-06	2.25e-06	< 1	678 1e-6 cm/s	> 2.9e-05	6.03e-07	2.8	
CCCN1C(CC2CCCCC2)=NS(=O)(=O)c2cc(NC(=O)c3ccc(F)cc3)ccc21 [NCGC00532335]	8.51e-07			8.91e-07		3.31e-06	8.61e-07	> 2.9e-05	8.94e-07	< 1	<1 1e-6 cm/s	> 2.9e-05	3.31e-06	> 30	
CCCN1C(CC2CCCCC2)=NS(=O)(=O)c2cc(NC(=O)c3cccs3)ccc21 [NCGC00532404]	9.55e-07		1.51e-06	3.55e-07		1.51e-06	9.66e-07	1.5e-06	3.56e-07	< 1		> 2.9e-05	1.53e-06	3.4	Papp ([7]; PAMPA): < 500 ×10⁻⁶ cm/s
CCCN1C(CC(C)C)=NS(=O)(=O)c2cc(NC(=O)Nc3nccs3)ccc21 [NCGC00537523]	2.69e-06		5.25e-06	2.14e-06	9.55e-06	9.33e-06	2.67e-06	5.23e-06	2.16e-06	1.2 (≈ 2.85 µM)	113 1e-6 cm/s	9.56e-06	9.29e-06	7.8	
CC(C)CC1=NS(=O)(=O)c2cc(NC(=O)c3ccc(F)s3)ccc2N1C [NCGC00651708]				1.66e-06			> 2.9e-05	> 2.9e-05	1.68e-06	< 1	3.07 1e-6 cm/s	> 2.9e-05	> 2.9e-05	> 30	RLMS T1/2 [8]: much better stability
CC(C)CC1=NS(=O)(=O)c2cc(NC(=O)c3ccc(F)cc3)ccc2N1C [NCGC00651713]							> 2.9e-05	> 2.9e-05	> 2.9e-05	< 1	<1 1e-6 cm/s	> 2.9e-05	> 2.9e-05	> 30	
CN1C(c2ccccc2)=NS(=O)(=O)c2cc(NC(=O)c3ccc(F)cc3)ccc21 [NCGC00651719]							> 2.9e-05	> 2.9e-05	> 2.9e-05	< 1	3.25 1e-6 cm/s	> 2.9e-05	> 2.9e-05	> 30	
CCN(CC)CCCC(C)Nc1ccnc2cc(Cl)ccc12 (centres unmarked) [chloroquine]		no observed change in susceptibility													
